Assay results from publication PMC12977544, “Phenotypic high-throughput screening identifies modulators of gut microbial choline metabolism” (mBio, 2026).
Where two headings read alike, the source gives them in different places.

Experiments:
Test in all cases: TMA inhibition in bacterial whole cells (LC–MS/MS of d9-TMA from d9-choline)
E. coli MS 200-1 = type: cell-based, Escherichia coli MS 200-1
Protocol: (§1) For TMA inhibition assays, E. coli and P. mirabilis were grown in NCE medium supplemented with 20 mM choline chloride, A. hydrogenalis was grown in MEGA medium supplemented with 3 mM choline chloride, and C. sporogenes was grown in BHI medium supplemented with 20 mM of choline chloride to induce expression of the cut gene cluster. For MIC assays, all bacteria strains were grown in MEGA medium.
(§2) Compounds were stored as 10 mM DMSO stocks at –20°C and diluted in DMSO to prepare varying concentrations of inhibitors for testing. Bacteria were grown anaerobically overnight in media supplemented with choline as described above. Cells were pelleted and resuspended in PBS, and d9-choline chloride was added to a final concentration of 1 mM. The final OD600 of the PBS cell resuspensions is as follows: 0.4 (E. coli), 0.15–0.2 (P. mirabilis), 0.2 (C. sporogenes), and 0.4 (A. hydrogenalis). The resuspended cells were added to 96-well plates containing inhibitors (final concentration of 1% DMSO, with final inhibitor concentrations ranging between 0 and 325 µM). The plates were sealed and incubated for 75 min (or 90 min for P. mirabilis) at 37°C. Following incubation, the plates were removed from the anaerobic chamber and analyzed immediately or kept at –20°C until LC–MS/MS analysis. Each inhibitor concentration was tested in triplicate. EC50 values were calculated with GraphPad Prism by fitting the log(inhibitor) vs response—Variable slope (four-parameter) model for non-linear regression.
(§3) Samples were kept frozen until analysis and kept cold on ice during handling due to the volatility of TMA. Bacterial cell resuspensions in PBS were diluted 100-fold in LCMS-grade acetonitrile with 0.1% formic acid to lyse cells, precipitate proteins, and extract metabolites. Samples were centrifuged at 4,000 rpm for 10 min at 4°C to pellet proteins. The supernatants were then further diluted 20-fold in LCMS-grade acetonitrile with 0.1% formic acid, and the resulting solution was analyzed by LC–MS/MS.
(§4) LC–MS/MS analysis was performed on an Agilent 1290/6470 Triple Quadrupole LC–MS instrument (Agilent Technologies) using electrospray ionization. The mass spectrometer was operated in multiple reaction monitoring (MRM) mode with positive ionization monitoring. The precursor–product ion pairs used in MRM mode were as follows: m/z 69.1m/z → 49.1 (d9-TMA) and m/z 113.2 m/z → 69.1 (d9-choline). The capillary voltage was set to 4.0 kV, and the fragmentor voltage was set to 30 V (d9-TMA) and 115 V (d9-choline). The collision energy for the precursor–product ion pairs was set to 29 V (d9-TMA) and 21 V (d9-choline). MS^1 resolution was set to wide and MS^2 resolution to unit. The drying gas temperature was maintained at 250°C, with a flow rate of 11 L/min and a nebulizer pressure of 45 psi. The time filter width used was 0.07 min. The injection volume of all samples was 1 μL. Samples were injected onto InfinityLab Poroshell 120 (Agilent) HILIC columns (2.7 μm, 100 mm × 2.1 mm, 100 Å) preceded by InfinityLab Poroshell 120 HILIC guard columns (2.1 mm, 1.9µm UHPLC guard). The LC conditions on the binary pump were as follows: a gradient of 5–35% A increasing over 1.95 min (1.2 mL/min), a gradient of 35–5% A decreasing over 0.05 min (1.6 mL/min), and held at 5% A for 0.5 min (2 mL/min). […] Solvent A was 10 mM ammonium formate with 0.1% formic acid, and solvent B was acetonitrile with 0.1% formic acid. Data analysis was performed with Mass Hunter Workstation Data Acquisition and Qualitative Analysis software (Agilent Technologies).

[1] = test system: Clostridium sporogenes ATCC 15579; type: cell-based; conditions: 1 mM d9-choline in PBS, 75 min, 37°C, anaerobic
Protocol: as §1, §2, §3, §4

[2] = test system: Proteus mirabilis ATCC 29906; type: cell-based; conditions: 1 mM d9-choline in PBS, 90 min, 37°C, anaerobic; for EC50: read-out: EC50 in whole cells, P. mirabilis (TMA inhibition)
Protocol: as §1, §2, §3, §4

[3] = test system: Anaerococcus hydrogenalis DSM 7454; type: cell-based; conditions: 1 mM d9-choline in PBS, 75 min, 37°C, anaerobic
Protocol: as §1, §2, §3, §4

[4] = Escherichia coli, MS2001, 1.25 h, 1 mM d9-choline in PBS, 75 min, 37°C, anaerobic
[5] = Clostridium sporogenes, ATCC15579, 1.25 h
[6] = Proteus mirabilis, ATCC29906, 1.5 h
[7] = Anaerococcus hydrogenalis, DSM7454, 1.25 h
[8] = 1 mM d9-choline in PBS, 75 min, 37°C, anaerobic

| Compound | EC50 (E. coli MS 200-1; [4]) | EC50 [1, 5] | EC50 [2, 6] | EC50 [1] | EC50 [2] | EC50 (E. coli MS 200-1; [8]) | other results |
| --- | --- | --- | --- | --- | --- | --- | --- |
| Cc1ccc(-c2cc(C(=O)NCCCN3CCC(C)CC3)c(C)[nH]2)cc1C [C00002] | 9 µM |  |  |  |  |  |  |
| Cc1ccc(-c2cc(C(=O)NCCN3CCC(C)CC3)c(C)[nH]2)cc1C [C00003] | 7 µM | 213 µM | 64 µM |  |  |  | EC50 [3, 7]: 176 µM |
| Cc1ccc(-c2cc(C(=O)NCCCCN3CCC(C)CC3)c(C)[nH]2)cc1C [C00004] | 5 µM | 138 µM | 35 µM |  |  |  | EC50 [3, 7]: 27 µM |
| Cc1ccc(-c2cc(C(=O)NCCCCCN3CCC(C)CC3)c(C)[nH]2)cc1C [C00005] | 11 µM | 84 µM | 66 µM |  |  |  | EC50 [3, 7]: 33 µM |
| Cc1ccc(-c2cc(C(=O)NCCC3=CCCCC3)c(C)[nH]2)cc1C [C00006] | > 100 µM |  |  |  |  |  | EC50 in whole cells, C. sporogenes (TMA inhibition) [1]: No inhibition at 100 |
| COCCNC(=O)c1cc(-c2ccc(C)c(C)c2)[nH]c1C [C00007] |  |  |  |  |  |  | EC50 in whole cells, C. sporogenes (TMA inhibition) [1]: No inhibition at 100; EC50 in whole cells, E. coli (TMA inhibition) (E. coli MS 200-1; [8]): No inhibition at 100 |
| Cc1ccc(-c2cc(C(=O)NCCN)c(C)[nH]2)cc1C [C00008] | 140 µM |  |  |  |  |  | EC50 in whole cells, C. sporogenes (TMA inhibition) [1]: No inhibition at 312; EC50 in whole cells, P. mirabilis (TMA inhibition) [2]: No inhibition at 312 |
| CCCNCCNC(=O)c1cc(-c2ccc(C)c(C)c2)[nH]c1C [C00009] | 60 µM | > 312 µM | > 312 µM |  |  |  |  |
| CCCN(CCC)CCNC(=O)c1cc(-c2ccc(C)c(C)c2)[nH]c1C [C00010] | 200 µM | > 312 µM | > 312 µM |  |  |  |  |
| Cc1ccc(-c2cc(C(=O)NCCCN3CCOCC3)c(C)[nH]2)cc1C [C00011] | > 125 µM |  |  |  |  |  | EC50 in whole cells, C. sporogenes (TMA inhibition) [1]: No inhibition at 312; EC50 in whole cells, P. mirabilis (TMA inhibition) [2]: No inhibition at 312 |
| Cc1ccc(-c2cc(C(=O)NCCCN3CCN(C)CC3)c(C)[nH]2)cc1C [C00012] | 14 µM | 92 µM | 58 µM |  |  |  | EC50 in whole cells, A. hydrogenalis (TMA inhibition) [3]: No inhibition at 312 |
| Cc1ccc(-c2cc(C(=O)NCCCN3CCN(C)C(=O)C3)c(C)[nH]2)cc1C [C00013] | > 125 µM | > 312 µM |  |  |  |  | EC50 in whole cells, P. mirabilis (TMA inhibition) [2]: No inhibition at 312 |
| Cc1ccc(-c2cc(C(=O)NCCCN3CCCC3)c(C)[nH]2)cc1C [C00014] | 11 µM | 78 µM | 104 µM |  |  |  | EC50 [3, 7]: 83 µM |
| Cc1ccc(-c2cc(C(=O)NCCCN3CCCCC3)c(C)[nH]2)cc1C [C00015] | 10 µM | 267 µM | 193 µM |  |  |  | EC50 [3, 7]: 244 µM |
| Cc1ccc(-c2cc(C(=O)NCCCN3CCCCCC3)c(C)[nH]2)cc1C [C00016] | 2 µM | 104 µM | 40 µM |  |  |  | EC50 [3, 7]: 43 µM |
| Cc1ccc(-c2cc(C(=O)NCCCN3CCCCCCC3)c(C)[nH]2)cc1C [C00017] | 3 µM | 40 µM | 28 µM |  |  |  | EC50 [3, 7]: 28 µM |
| Cc1ccc(-c2cc(C(=O)NCCCCN3CCCCCC3)c(C)[nH]2)cc1C [C00018] | 8 µM | 68 µM | 33 µM |  |  |  | EC50 [3, 7]: 7 µM |

| Compound | EC50 (E. coli MS 200-1; [4]) | EC50 [1, 5] | EC50 [2, 6] | EC50 [1] | EC50 [2] | EC50 (E. coli MS 200-1; [8]) | other results |
| --- | --- | --- | --- | --- | --- | --- | --- |
| Cc1ccc(-c2cc(C(=O)NCCCCCN3CCCCCC3)c(C)[nH]2)cc1C [C00019] | 2 µM |  |  |  |  |  |  |
| Cc1ccc(-c2[nH]cc(C(=O)NCCCN3CCC(C)CC3)c2C)cc1C [Compound 8] |  |  |  | 97 µM | 131 µM | > 125 µM | Fold increase of EC50 in E. coli (E. coli MS 200-1; compared with compound 6): more than 10 fold |
| CCc1[nH]c(-c2ccc(C)c(C)c2)cc1C(=O)NCCCN1CCC(C)CC1 [Compound 9] |  |  |  | 103 µM |  | 35 µM |  |
| Cc1ccc(-c2ccc(C(=O)NCCCN3CCC(C)CC3)[nH]2)cc1C [Compound 10] |  |  |  | 312 µM | 63 µM | 98 µM |  |
| Cc1ccc(-c2c[nH]c(C(=O)NCCCN3CCC(C)CC3)c2)cc1C [Compound 11] |  |  |  | > 312 µM | 42 µM | 13 µM |  |
| Cc1ccc(-c2cc(C(=O)NCCCN3CCC(C)CC3)c(C)o2)cc1C [Compound 12] |  |  |  |  | > 312 µM | 15 µM | EC50 [3]: 54 µM |
| Cc1ccc(-c2cc(C(=O)NCCCN3CCC(C)CC3)cs2)cc1C [Compound 13] |  |  |  | 85 µM | 50 µM | 14 µM |  |
| Cc1ccc(-c2ncc(C(=O)NCCCN3CCC(C)CC3)s2)cc1C [Compound 14] |  |  |  | 215 µM | 197 µM | 27 µM |  |
| Cc1ccc(-c2cc(C(=O)NCCCN3CCC(C)CC3)cn2C)cc1C [Compound 15] |  |  |  |  | 98 µM | 21 µM |  |
| C#CCn1c(-c2ccc(C)c(C)c2)cc(C(=O)NCCCN2CCC(C)CC2)c1C [Compound 16] |  |  |  | 5 µM |  | 39 µM |  |
| Cc1ccc(-c2cc(C(=O)NCCCN3CCC(C)CC3)c(C)n2C2CCCC2)cc1C [Compound 17] |  |  |  | 8 µM |  | 69 µM |  |
| Cc1ccc(-c2cc(C(=O)NCCCN3CCC(C)CC3)c(C)n2-c2ccccc2)cc1C [Compound 18] |  |  |  | 3 µM |  | 489 µM |  |
| Cc1[nH]c(C2CCCCC2)cc1C(=O)NCCCN1CCC(C)CC1 [Compound 21] |  |  |  | 8 µM |  | 51 µM | EC50 [3]: 32 µM |
| Cc1[nH]c(-c2ccccc2)cc1C(=O)NCCCN1CCC(C)CC1 [Compound 22] |  |  |  | 147 µM | 157 µM | 7 µM | EC50 [3]: 24 µM |
| Cc1ccc(-c2cc(C(=O)NCCCN3CCC(C)CC3)c(C)[nH]2)cc1 [Compound 24] |  |  |  |  | 131 µM | 92 µM |  |
| Cc1cc(C)cc(-c2cc(C(=O)NCCCN3CCC(C)CC3)c(C)[nH]2)c1 [Compound 25] |  |  |  | 133 µM | 28 µM | 6 µM | EC50 [3]: 19 µM |
